According to US9376387B2 (priority 2013, dated 2016):
Read-outs that look alike come from different tables or passages of the source.

Key:
[1] = biological target: T1, hAChE (human erythrocyte membranes as a AChE source) (Homo sapiens, UniProt P22303); test: acetylcholinesterase (AChE) activity, modified Ellman method; assay type: biochemical
T1 construct: human erythrocyte membranes as a AChE source; from tissue; host or cells: human erythrocyte membranes

[2] = biological target: EqBuChE (Equus caballus, UniProt P81908); test: biochemical
[3] = hAChE IC50, modified Ellman method, acetylthiocholine iodide substrate, pH=7.4
[4] = IC50, enzyme not named in the examples, AChE per the Table

T1 sequence (P22303 32-617 isoform P22303-2 limits assumed): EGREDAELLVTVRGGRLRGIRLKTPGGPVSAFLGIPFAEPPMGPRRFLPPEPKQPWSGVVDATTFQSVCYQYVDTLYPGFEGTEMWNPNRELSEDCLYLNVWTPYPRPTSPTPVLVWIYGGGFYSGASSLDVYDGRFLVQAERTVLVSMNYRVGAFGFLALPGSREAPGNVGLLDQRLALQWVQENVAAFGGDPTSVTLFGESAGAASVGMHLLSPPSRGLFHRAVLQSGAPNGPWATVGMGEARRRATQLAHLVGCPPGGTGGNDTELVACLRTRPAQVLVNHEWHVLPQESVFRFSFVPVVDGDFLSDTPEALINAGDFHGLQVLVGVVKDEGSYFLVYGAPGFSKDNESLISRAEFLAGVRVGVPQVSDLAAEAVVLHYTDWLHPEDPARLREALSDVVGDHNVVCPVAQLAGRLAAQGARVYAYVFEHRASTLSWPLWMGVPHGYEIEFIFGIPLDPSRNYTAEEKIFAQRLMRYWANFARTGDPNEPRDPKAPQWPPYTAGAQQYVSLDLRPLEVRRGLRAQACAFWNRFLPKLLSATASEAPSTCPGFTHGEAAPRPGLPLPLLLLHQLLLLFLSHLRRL
Sequence of EqBuChE (P81908 whole entry): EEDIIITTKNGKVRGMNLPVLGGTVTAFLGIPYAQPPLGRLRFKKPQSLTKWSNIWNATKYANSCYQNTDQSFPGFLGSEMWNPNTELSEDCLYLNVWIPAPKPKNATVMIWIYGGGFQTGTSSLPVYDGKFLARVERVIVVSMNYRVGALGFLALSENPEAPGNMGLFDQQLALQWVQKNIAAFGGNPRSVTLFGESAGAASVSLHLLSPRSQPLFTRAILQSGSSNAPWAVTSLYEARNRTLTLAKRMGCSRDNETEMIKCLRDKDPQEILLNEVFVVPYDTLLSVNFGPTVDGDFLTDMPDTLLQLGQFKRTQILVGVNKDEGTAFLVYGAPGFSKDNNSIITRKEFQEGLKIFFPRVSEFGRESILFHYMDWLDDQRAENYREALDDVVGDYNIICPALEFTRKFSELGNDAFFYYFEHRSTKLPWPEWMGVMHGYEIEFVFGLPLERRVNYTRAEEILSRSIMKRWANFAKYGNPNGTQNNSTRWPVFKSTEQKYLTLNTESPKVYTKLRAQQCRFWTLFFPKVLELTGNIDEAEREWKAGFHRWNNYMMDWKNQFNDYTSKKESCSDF

COc1ccc2c(c1)CCC(Cc1cc[n+](Cc3ccccc3)cc1C(C)=O)C2=O (stereo not shown) [Compound 82, 2-[(3-acetyl-1-benzyl-pyridin-1-ium-4-yl)methyl]-6-methoxy-tetralin-1-one chloride]
IC50 [1, 3]: 76 nM | IC50 ([2]; EqBuChE IC50): 371 nM

CC(=O)c1c[n+](Cc2ccccc2C)ccc1CC1Cc2cc(C)c(C)cc2C1=O (stereo not shown) [Compound 152, 2-[[3-acetyl-1-(o-tolylmethyl)pyridin-1-ium-4-yl]methyl]-5,6-dimethyl-indan-1-one bromide]
IC50 [1, 3]: 37.7 nM | IC50 ([2]; EqBuChE IC50): 262 nM

COc1cc2c(cc1OC)C(=O)/C(=C/c1cc[n+](Cc3ccccc3)cc1C(C)=O)C2 [Compound 149, (2E)-2-[(3-actyl-1-benzyl-pyridin-1-ium-4-yl)methylene]-5,6-dimethoxy-indan-1-one bromide]
IC50 [1, 3]: 20.1 nM

COc1ccc2c(c1)CCC(CC1C=CN(Cc3cccc(C)c3)C=C1C(C)=O)C2=O (stereo not shown) [Compound 61, 2-[[3-acetyl-1-(m-tolylmethyl)-4H-pyridin-4-yl]methyl]-6-methoxy-tetralin-1-one]
IC50 ([2]; EqBuChE IC50): 4020 nM

COc1ccc2c(c1)CCC(Cc1cc[n+](Cc3cccc(Cl)c3)cc1C(C)=O)C2=O (stereo not shown) [Compound 122, 2-[[3-acetyl-1-[(3-chlorophenyl)methyl]pyridin-1-ium-4-yl]methyl]-6-methoxy-tetralin-1-one bromide]
IC50 [1, 3]: 71 nM | IC50 ([2]; EqBuChE IC50): 496 nM

COc1ccc2c(c1)CCC(CC1C=CN(Cc3ccccc3C)C=C1C(C)=O)C2=O (stereo not shown) [Compound 59, 2-[[3-acetyl-1-(o-tolylmethyl)-4H-pyridin-4-yl]methyl]-6-methoxy-tetralin-1-one]
IC50 ([2]; EqBuChE IC50): 8270 nM

COc1ccc2c(c1)CCC(Cc1cc[n+](Cc3ccc(C)cc3)cc1C(C)=O)C2=O (stereo not shown) [Compound 130, 2-[[3-acetyl-1-(p-tolylmethyl)pyridin-1-ium-4-yl]methyl]-6-methoxy-tetralin-1-one bromide]
IC50 [1, 3]: 556 nM | IC50 ([2]; EqBuChE IC50): 4140 nM

COc1ccc2c(c1)CCC(Cc1cc[n+](Cc3ccccc3Cl)cc1C(C)=O)C2=O (stereo not shown) [Compound 126, 2-[[3-acetyl-1-[(2-chlorophenyl)methyl]pyridin-1-ium-4-yl]methyl]-6-methoxy-tetralin-1-one bromide]
IC50 [1, 3]: 29 nM | IC50 ([2]; EqBuChE IC50): 256 nM

COc1cc2c(cc1OC)C(=O)C(CC1C=CN(Cc3ccccc3)C=C1C(C)=O)CC2 (stereo not shown) [Compound 162, 2-[(3-acetyl-1-benzyl-4H-pyridin-4-yl)methyl]-6,7-dimethoxy-tetralin-1-one]
IC50 [1, 3]: 415 nM | IC50 ([2]; EqBuChE IC50): 3970 nM

CC(=O)C1=CN(Cc2ccccc2C)C=CC1CC1Cc2cc3c(cc2C1=O)OCO3 (stereo not shown) [Compound 165, 6-[[3-acetyl-1-(o-tolylmethyl)-4H-pyridin-4-yl]methyl]-5,6-dihydrocyclopenta[f][1,3]benzodioxol-7-one]
IC50 ([2]; EqBuChE IC50): 4610 nM

CC(=O)C1=CN(Cc2ccccc2C)C=CC1CC1Cc2cc(C)ccc2C1=O (stereo not shown) [Compound 163, 2-[[3-acetyl-1-(o-tolylmethyl)-4H-pyridin-4-yl]methyl]-5-methyl-indan-1-one]
IC50 ([2]; EqBuChE IC50): 4820 nM

COc1cc2c(cc1OC)C(=O)C(Cc1cc[n+](Cc3ccccc3)cc1Br)C2 (stereo not shown) [Compound 145, 2-[(1-benzyl-3-bromo-pyridin-1-ium-4-yl)methyl]-5,6-dimethoxy-indan-1-one bromide]
IC50 ([1]; modified Ellman method, acetylthiocholine iodide substrate, pH=7.4, read-out: hAChE IC50): 0.36 nM | IC50 ([2]; read-out: EqBuChE IC50): 1790 nM

COc1ccc2c(c1)CCC(CC1C=CN(Cc3ccccc3Cl)C=C1C(C)=O)C2=O (stereo not shown) [Compound 157, 2-[[3-acetyl-1-[(2-chlorphenyl)methyl]-4H-pyridin-4-yl]methyl]-6-methoxy-tetralin-1-one]
IC50 ([2]; EqBuChE IC50): 5780 nM

COc1cc2c(cc1OC)C(=O)C(Cc1cc[n+](Cc3ccccc3)cc1F)CC2 (stereo not shown) [Compound 133, 2[(1-benzyl-3-fluoro-pyridin-1-ium-4-yl)methyl]-6,7-dimethoxy-tetralin-1-one bromide]
IC50 [1, 3]: 9.1 nM | IC50 ([2]; EqBuChE IC50): 508 nM

COc1ccc2c(c1)CCC(Cc1cc[n+](Cc3cccc(C(F)(F)F)c3)cc1C(C)=O)C2=O (stereo not shown) [Compound 124, 2-[[3-acetyl-1-[[3-(trifluoromethyl)phenyl]methyl]pyridin-1-ium-4-yl]methyl]-6-methoxy-tetralin-1-one bromide]
IC50 [1, 3]: 308 nM | IC50 ([2]; EqBuChE IC50): 2170 nM

COc1cc2c(cc1OC)C(=O)C(Cc1cc[n+](Cc3ccccc3)cc1C#N)C2 (stereo not shown) [Compound 26, 1-Benzyl-3-cyano-4-(5,6-dimethoxy-1-oxo-2,3-dihydro-1H-inden-2-yl)methylpyridinium iodide]
IC50 [1, 4]: 11.2 nM | IC50 [1, 3]: 11.3 nM

COc1ccc(C(=O)N(CCC2C=CN(Cc3ccccc3)C=C2C(C)=O)c2ccccc2)cc1OC (stereo not shown) [Compound 32, N-[2-(3-acetyl-1-benzyl-4H-pyridin-4-yl)ethyl]-3,4-dimethoxy-N-phenyl-benzamide]
IC50 ([2]; EqBuChE IC50): 6210 nM

COc1cc2c(cc1OC)C(=O)C(Cc1cc[n+](Cc3cccc(C)c3)cc1Br)C2 (stereo not shown) [Compound 146, 2-[[3-bromo-1-(m-tolylmethyl)pyridin-1-ium-4-yl]methyl]-5,6-dimethoxy-indan-1-one bromide]
IC50 [1, 3]: 0.465 nM | IC50 ([2]; EqBuChE IC50): 3860 nM

COc1ccc2c(c1)CCC(Cc1cc[n+](Cc3ccc(Cl)cc3)cc1C(C)=O)C2=O (stereo not shown) [Compound 131, 2-[[3-acetyl-1-[(4-chlorophenyl)methyl]pyridin-1-ium-4-yl]methyl]-6-methoxy-tetralin-1-one bromide]
IC50 [1, 3]: 568 nM | IC50 ([2]; EqBuChE IC50): 6090 nM

COc1cc2c(cc1OC)C(=O)C(CC1C=CN(Cc3ccccc3)C=C1C(C)=O)C2 (stereo not shown) [Compound 34, 1-Benzyl-4-(5,6-dimethoxy-1-oxo-2,3-dihydro-1H-inden-2-yl)methyl-1,4-dihydropyridine-3-acetyl]
IC50 [1, 4]: 528 nM

COc1ccc2c(c1)CCC(Cc1cc[n+](Cc3ccc(F)cc3)cc1C(C)=O)C2=O (stereo not shown) [Compound 129, 2-[[3-acetyl-1-[(4-fluorophenyl)methyl]pyridin-1-ium-4-yl]methyl]-6-methoxy-tetralin-1-one bromide]
IC50 [1, 3]: 141 nM | IC50 ([2]; EqBuChE IC50): 171 nM

COc1ccc2c(c1)CCC(CC1C=CN(Cc3ccccc3F)C=C1C(C)=O)C2=O (stereo not shown) [Compound 55, 2-[[3-acetyl-1-[(2-fluorophenyl)methyl]-4H-pyridin-4-yl]methyl]-6-methoxy-tetralin-1-one]
IC50 ([2]; EqBuChE IC50): 6010 nM

COc1cc2c(cc1OC)C(=O)C(Cc1cc[n+](Cc3ccccc3)cc1)C2 (stereo not shown) [Compound 23, 1-Benzyl-4-((5,6-dimethoxy-1-oxo-2,3-dihydro-1H-inden-2-yl)methyl)pyridinium iodide]
IC50 [1, 4]: 36.8 nM

CC(=O)c1c[n+](Cc2ccccc2C)ccc1CC1Cc2cc(Cl)ccc2C1=O (stereo not shown) [Compound 136, 2-[[3-acetyl-1-(o-tolylmethyl)pyridin-1-ium-4-yl]methyl]-5-chloro-indan-1-one bromide]
IC50 [1, 3]: 262 nM

COc1ccc2c(c1)CCC(CC1C=CN(Cc3ccccc3C(F)(F)F)C=C1C(C)=O)C2=O (stereo not shown) [Compound 67, 2-[[3-acetyl-1-[[2-(trifluoromethyl)phenyl]methyl]-4H-pyridin-4-yl]methyl]-6-methoxy-tetralin-1-one]
IC50 ([2]; EqBuChE IC50): 3050 nM

COc1cc2c(cc1OC)C(=O)C(CC1C=CN(Cc3ccccc3C)C=C1C(C)=O)C2 (stereo not shown) [Compound 169, 2-[[3-acetyl-1-(o-tolylmethyl)-4H-pyridin-4-yl]methyl]-5,6-dimethoxy-indan-1-one]
IC50 [1, 3]: 428 nM

COc1ccc2c(c1)CCC(CC1C=CN(Cc3ccc(F)cc3)C=C1C(C)=O)C2=O (stereo not shown) [Compound 155, 2-[[3-acetyl-1-[(4-fluorophenyl)methyl]-4H-pyridin-4-yl]methyl]-6-methoxy-tetralin-1-one]
IC50 ([2]; EqBuChE IC50): 2270 nM

COc1ccc2c(c1)CC(CC1C=CN(Cc3ccccc3C)C=C1C(C)=O)C2=O (stereo not shown) [Compound 164, 2-[[3-acetyl-1-(o-tolylmethyl)-4H-pyridin-4-yl]methyl]-5-methoxy-indan-1-one]
IC50 ([2]; EqBuChE IC50): 5440 nM

COc1ccc2c(c1)CCC(CC1C=CN(Cc3cccc(F)c3)C=C1C(C)=O)C2=O (stereo not shown) [Compound 156, 2-[[3-acetyl-1-[(3-fluorophenyl)methyl]-4H-pyridin-4-yl]methyl]-6-methoxy-tetralin-1-one]
IC50 ([2]; EqBuChE IC50): 4400 nM

COc1cc2c(cc1OC)C(=O)C(Cc1cc[n+](Cc3ccccc3)cc1C(C)=O)CC2 (stereo not shown) [Compound 132, 2-[(3-actyl-1-benzyl-pyridin-1-ium-4-yl)methyl]-6,7-dimethoxy-tetralin-1-one bromide]
IC50 [1, 3]: 24.2 nM

COc1ccc2c(c1)CCC(CC1C=CN(Cc3ccccc3C)C=C1C(C)=O)C2=O (racemic) [Compound 160, 2-[[3-acetyl-1-(o-tolylmethyl)-4H-pyridin-4-yl]methyl]-6-methoxy-tetralin-1-one]
IC50 ([2]; EqBuChE IC50): 8270 nM

COc1cc2c(cc1OC)C(=O)C(CC1C=CN(Cc3ccccc3)C=C1C#N)C2 (stereo not shown) [Compound 27, 1-Benzyl-4-(5,6-dimethoxy-1-oxo-2,3-dihydro-1H-inden-2-yl)methyl-1,4-dihydropyridine-3-carbonitrile]
IC50 [1, 4]: 175 nM

COc1cc2c(cc1OC)C(=O)C(Cc1cc[n+](Cc3ccccc3)cc1C(C)=O)C2 (stereo not shown) [Compound 33, 1-Benzyl-3-actyl-4-(5,6-dimethoxy-1-oxo-2,3-dihydro-1H-inden-2-yl)methyl pyridinium bromide]
IC50 [1, 4]: 18 nM

COc1ccc(C(=O)N(CCCC2C=CN(Cc3ccccc3)C=C2C(C)=O)c2ccccc2)cc1OC (stereo not shown) [Compound 36, N-[3-(3-acetyl-1-benzyl-4H-pyridin-4-yl)propyl]-3,4-dimethoxy-N-phenyl-benzamide]
IC50 ([2]; EqBuChE IC50): 4600 nM

COc1ccc2c(c1)CCC(CC1C=CN(Cc3ccccc3C)C=C1C(C)=O)C2=O (single isomer, unassigned) [Compound 160-C, 2-[[3-acetyl-1-(o-tolylmethyl)-4H-pyridin-4-yl]methyl]-6-methoxy-tetralin-1-one]
IC50 ([2]; EqBuChE IC50): 4700 nM

COc1ccc2c(c1)CCC(CC1C=CN(Cc3ccccc3C)C=C1C(C)=O)C2=O (single isomer, unassigned) [Compound 160-B, 2-[[3-acetyl-1-(o-tolylmethyl)-4H-pyridin-4-yl]methyl]-6-methoxy-tetralin-1-one]
IC50 ([2]; EqBuChE IC50): 5640 nM
